According to patent US6531308B2, “Ketoreductase gene and protein from yeast” (Eli Lilly and Company, priority 1997, dated 2003):

Test system: wild-type ketoreductase from Z. rouxii (SEQ ID NO: 2)
Test: Reductase activity of Z. rouxii ketoreductase, substrate specificity (NADPH oxidation, absorbance at 340 nm)
Format: biochemical
Procedure: Reductase activity was measured using a suitable substrate and a partially purified or substantially purified ketoreductase from Z. rouxii. Activity was measured as a function of the absorbance change at 340 nm, resulting from the oxidation of NADPH. […] Reaction mixtures were first equilibrated at 26° C. for 10 min in the absence of NADPH, and then initiated by addition of NADPH. […] The kinetic parameters for 3,4-methylenedioxyphenyl acetone were determined at an NADPH concentration of 112 μM and a 3,4-methylenedioxyphenyl acetone concentration that varied from 1.7 mM -7.2 mM. The kinetic parameters for NADPH were determined by maintaining the 3,4-methylenedioxyphenyl acetone concentration at 3 mM and the NADPH concentration was varied from 20.5 μM-236.0 μM. An extinction coefficient of 6220 M^−1 cm^−1 for NADPH absorbance at 340 nm was used to calculate the specific activity of the enzyme. For assays using isatin, the change in absorbance with time was measured at 414 nm using an extinction coefficient of 849 M^−1 cm^−1 to calculate activity. One Unit of activity corresponds to 1 μmol of NADPH consumed per minute. For assays carried out at differing pH values, 10 mM Bis-Tris and 10 mM Tris were adjusted to the appropriate pH with HCl. Kinetic parameters were determined by non-linear regression using the JMP® statistics and graphics program.

CC(=O)c1ccccc1
% Relative Activity (substrate concentration 0.6 mM): 4%

CC(C)(CO)C(=O)C(=O)O
% Relative Activity (substrate concentration 4 mM): 37%

CC1(C)[C@H]2CC[C@]1(C)C(=O)C2=O
% Relative Activity (substrate concentration 5 mM): 100%

CC(=O)Cc1ccc2c(c1)OCO2 [3,4-methylenedioxyphenyl acetone]
% Relative Activity (substrate concentration 3 mM): 100%

CC1(C)COC(=O)C1=O
% Relative Activity (substrate concentration 3 mM): 194%

CCOC(=O)CC(=O)CCl
% Relative Activity (substrate concentration 5 mM): 42%

CC1(C)[C@@H]2CC[C@@]1(C)C(=O)C2=O
% Relative Activity (substrate concentration 5 mM): 32%

O=C1Nc2ccccc2C1=O
% Relative Activity (substrate concentration 0.8 mM): 86%

CC(=O)CCc1ccc2c(c1)OCO2
% Relative Activity (substrate concentration 5 mM): 18%

CC(=O)CN1C(=O)c2ccccc2C1=O
% Relative Activity (substrate concentration 0.6 mM): 17%

CC(=O)CCc1ccccc1
% Relative Activity (substrate concentration 0.6 mM): 0%
